We go through 33 compounds from patent US7381749B2, “Sulfonamides as inhibitors of histone deacetylase for the treatment of disease” (Kalypsys, Inc., priority 2004, dated 2008).

The subject of one test is HDAC. Kind of test: In vitro HDAC-inhibition assay (Fluor de Lys fluorescent substrate). The test is classed as biochemical. To be noted: HDAC enzyme source (e.g. partially purified nuclear extract or immunopurified HDAC complexes). How it is done:
In vitro HDAC-Inhibition Assay:
This assay measures a compound's ability to inhibit acetyl-lysine deacetylation in vitro and was used as both a primary screening method as well as for IC50 determinations of confirmed inhibitors. The assay is performed in vitro using an HDAC enzyme source (e.g. partially purified nuclear extract or immunopurified HDAC complexes) and a proprietary fluorescent substrate/developer system (HDAC Quantizyme Fluor de Lys Fluorescent Activity Assay, BIOMOL). The assay is run in 1,536-well Greiner white-bottom plates using the following volumes and order of addition: • Step 1: Enzyme (2.5 ul) source added to plate (from refrigerated container) • Step 2: Compounds (50 nl) added with pin transfer device • Step 3: Fluor de Lys (2.5 ul) substrate added, incubate at RT, 30 minutes • Step 4: Developer (5 ul) solution is added (containing TSA), to stop reaction • Step 5: Plate Reader—data collection • The deacetylated fluorophore is excited with 360 nm light and the emitted light (460 nm) is detected on an automated fluorometric plate reader (Aquest, Molecular Devices).

In another test the test system is HDAC in cells. Briefly: Cellular IC50 (cellular assays: histone hyperacetylation cytoblot / differential cytotoxicity). Conditions: transformed cell lines (e.g. HeLa, A549, MCF-7); cell line not specified. The test is classed as cell-based. How it is done: These two secondary assays evaluates a compound's ability to inhibit HDAC in cells by measuring cellular histone acetylation levels. The cytoblot facilitates quantitative EC50 information for cellular HDAC inhibition. Transformed cell lines (e.g. HeLa, A549, MCF-7) are cultured under standard media and culture conditions prior to plating.
Cells (approx. 2,500/well) are allowed to adhere 10-24 hours to wells of a 384-well Greiner PS assay plate in media containing 1-5% serum. Cells are treated with appropriate compound and specific concentrations for 0 to 24 hours. Cells are washed once with PBS (60 ul) and then fixed (95% ethanol, 5% acetic acid or 2% PFA) for 1 minute at RT (30 ul). Cells are blocked with 1% BSA for 1 hour and washed and stained with antibody (e.g. anti-Acetylated Histone H3, Upstate Biotechnology), followed by washing and incubation with an appropriate secondary antibody conjugated to HRP or fluorophore. For luminescence assays, signal is generated using Luminol substrate (Santa Cruz Biotechnology) and detected using an Aquest plate reader (Molecular Devices).
Differential Cytotoxicity Assay:
HDAC inhibitors display differential cytotoxicity toward certain transformed cell lines. Cells are cultured according to standard ATCC recommended conditions that are appropriate to each cell type. Compounds were tested for their ability to kill different cell types (normal and transformed) using the ATPlite luminescence ATP detection assay system (Perkin Elmer). Assays are run in either 384-well or 1536-well Greiner PS plates. Cells (30 ul or 5 ul, respectively) are dispensed using either multichannel pipette for 384-well plates, or proprietary Kalypsys bulk liquid dispenser for 1536-well plates. Compounds added using proprietary pin-transfer device (500 nL or 5 nL) and incubated 5 to 30 hours prior to analysis. Luminescence is measured using Aquest plate reader (Molecular Devices).

As to `CC(=O)SCC(=O)c1ccc(NS(=O)(=O)C(C)C)cc1` [Example 25, Thioacetic acid S-{2-oxo-2-[4-(propane-2-sulfonylamino)-phenyl]-ethyl}ester], the IC50 – broadly, the concentration needed to halve the response being measured – with HDAC was less than 1000 nM.

Regarding `CC(=O)SCC(=O)c1ccc(NS(=O)(=O)c2cn(C)c(C)n2)cc1` [Example 24, Thioacetic acid S-{2-[4-(1,2-dimethyl-1H-imidazole-4-sulfonylamino)-phenyl]-2-oxo-ethyl}ester], the IC50 in the test on HDAC is less than 1000 nM; in the test with HDAC in cells it was less than 10000 nM.

As to `CC(=O)SCC(=O)c1ccccc1NS(=O)(=O)c1ccc(OC(F)(F)F)cc1` [Example 40], the results for the IC50 in the test on HDAC and in the test with HDAC in cells were less than 10000 nM and more than 50000 nM, respectively.

`CC(=O)SCC(=O)c1ccc(NS(=O)(=O)c2ccc(OC(F)(F)F)cc2)cc1F` [Example 47, Thioacetic acid S-{2-[2-fluoro-4-(4-trifluoromethoxy-benzenesulfonylamino)-phenyl]-2-oxo-ethyl}ester]: the IC50 in the test with HDAC and in the test with HDAC in cells was less than 1000 nM throughout.

For `CC(=O)SCC(=O)c1ccc(NS(=O)(=O)c2ccc(Cl)cc2Cl)cc1` [Example 28], the IC50 in the test with HDAC and with HDAC in cells was less than 1000 nM in each case.

As to `COc1ccc(S(=O)(=O)Nc2ccc(C(=O)CSC(C)=O)cc2)cc1OC` [Example 27], the half-inhibitory concentration (IC50) in the test with HDAC and in the test with HDAC in cells was less than 1000 nM each time.

Take `CC(=O)SCC(=O)c1ccc(NS(=O)(=O)c2ccccn2)cc1` [Example 51, Thioacetic acid S-{2-oxo-2-[4-(pyridine-2-sulfonylamino)-phenyl]-ethyl}ester]: the IC50 in the test on HDAC and in the test with HDAC in cells was less than 1000 nM each time.

For `CC(=O)SCC(=O)c1ccc(NS(=O)(=O)c2c(C)noc2C)cc1` [Example 29], the results for the half-maximal inhibitory concentration (IC50) with HDAC and in the test with HDAC in cells were less than 1000 nM and less than 10000 nM, respectively.

`CC(=O)SCC(=O)c1sc(NS(=O)(=O)c2ccc(OC(F)(F)F)cc2)nc1C` [Example 42] yielded an IC50 in the test with HDAC of less than 50000 nM.

Consider `CC(=O)SCC(=O)c1ccc(NS(=O)(=O)c2ccccc2)cc1` [Example 33], for which the IC50 in the test on HDAC is less than 1000 nM; in the test with HDAC in cells it was less than 10000 nM.

Take `CC(=O)SCC(=O)c1ccc(NS(=O)(=O)c2ccc(Cl)c(C(F)(F)F)c2)cc1` [Example 20, Thioacetic acid S-{2-[4-(4-chloro-3-trifluoromethyl-benzenesulfonylamino)-phenyl]-2-oxo-ethyl}ester]: the IC50 with HDAC and in the test on HDAC in cells was less than 1000 nM each time.

For the compound `CC(=O)SCC(=O)c1ccc(N(C(C)C)S(=O)(=O)c2ccc(OC(F)(F)F)cc2)cc1` [Example 13, Thioacetic acid S-(2-{4-[isopropyl-(4-trifluoromethoxy-benzenesulfonyl)-amino]-phenyl}-2-oxo-ethyl)ester], in the test on HDAC, the IC50 is less than 10000 nM.

For the compound `O=C(CSC(=O)c1ccccn1)c1ccc(NS(=O)(=O)c2ccc(OC(F)(F)F)cc2)cc1` [Example 09, Pyridine-2-carbothioic acid S-{2-oxo-2-[4-(4-trifluoromethoxy-benzenesulfonylamino)-phenyl]-ethyl}ester], the IC50 in the test on HDAC and with HDAC in cells was less than 1000 nM in each case.

For the compound `CC(=O)SCC(=O)c1ccc(NS(=O)(=O)c2ccc(F)cc2C)cc1` [Example 18, Thioacetic acid S-{2-[4-(4-fluoro-2-methyl-benzenesulfonylamino)-phenyl]-2-oxo-ethyl}ester], the IC50 in the test on HDAC and in the test with HDAC in cells was less than 1000 nM in each case.

Regarding `CC(=O)SCC(=O)c1ccc(NS(=O)(=O)c2cc(C)cc(C)c2)cc1` [Example 23, Thioacetic acid 2-[4-(3,5-dimethyl-benzenesulfonylamino)-phenyl]-2-oxo-ethyl ester], the IC50 in the test on HDAC is less than 1000 nM; in the test on HDAC in cells it was less than 10000 nM.

In the case of `CC(=O)SCC(=O)c1ccc(NS(=O)(=O)c2sc(C)nc2C)cc1` [Example 30], the IC50 with HDAC and in the test on HDAC in cells was less than 1000 nM each time.

Compound `O=C(CSC(=O)c1ccco1)c1ccc(NS(=O)(=O)c2ccc(OC(F)(F)F)cc2)cc1` [Example 04, Furan-2-carbothioic acid S-{2-oxo-2-[4-(4-trifluoromethoxy-benzenesulfonylamino)-phenyl]-ethyl}ester] displayed an IC50 with HDAC of less than 1000 nM.

Turning to `CC(=O)SCC(=O)c1cccc(NS(=O)(=O)c2ccc(OC(F)(F)F)cc2)c1` [Example 39], the IC50 in the test with HDAC and in the test on HDAC in cells was less than 1000 nM in each case.

As to `CC(=O)SCC(=O)c1ccc(NS(=O)(=O)c2cccnc2)cc1` [Example 52, Thioacetic acid S-{2-oxo-2-[4-(pyridine-3-sulfonylamino)-phenyl]-ethyl}ester], the IC50 in the test with HDAC was less than 1000 nM; with HDAC in cells, less than 10000 nM.

With `CC(=O)SCC(=O)c1ccc(NS(=O)(=O)c2cccc(F)c2)cc1` [Example 46], the IC50 in the test on HDAC and in the test on HDAC in cells was less than 1000 nM each time.

On to `CC(=O)SCC(=O)c1ccc2c(c1)CCN2S(=O)(=O)c1ccccn1` [Example 53, Thioacetic acid S-{2-oxo-2-[1-(pyridine-2-sulfonyl)-2,3-dihydro-1H-indol-5-yl]-ethyl}ester], for which the concentration for half-maximal inhibition (IC50) in the test with HDAC and with HDAC in cells was less than 1000 nM throughout.

In the test with HDAC in cells, `CC(=O)SCC(=O)c1ccc(NS(=O)(=O)c2cc(C)oc2C)cc1` [Example 31] showed an IC50 of less than 10000 nM.

`CC(=O)SCC(=O)c1ccc(NS(=O)(=O)c2ccc(F)cc2)cc1` [Example 34]: the IC50 with HDAC and in the test on HDAC in cells was less than 1000 nM each time.

Turning to `CC(=O)SCC(=O)c1ccc(NS(=O)(=O)c2cccc(OC(F)(F)F)c2)cc1` [Example 41], the IC50 with HDAC and in the test on HDAC in cells was less than 1000 nM throughout.

In the test on HDAC, `NCC(=O)SCC(=O)c1ccc(NS(=O)(=O)c2ccc(OC(F)(F)F)cc2)cc1` [Example 11, Amino-thioacetic acid S-{2-oxo-2-[4-(4-trifluoromethoxy-benzenesulfonylamino)-phenyl]-ethyl}ester] had an IC50 of less than 1000 nM.

As for `CC(=O)SCC(=O)c1ccc(NS(=O)(=O)c2cccc(Cl)c2)cc1` [Example 37], the IC50 in the test on HDAC and in the test with HDAC in cells was less than 1000 nM in each case.

Turning to `CC(=O)SCC(=O)c1ccc(NS(=O)(=O)c2ccc(OC(F)(F)F)cc2)c(F)c1` [Example 15, Thioacetic acid S-{2-[3-fluoro-4-(4-trifluoromethoxy-benzenesulfonylamino)-phenyl]-2-oxo-ethyl}ester], the IC50 in the test with HDAC was less than 1000 nM.

On to `COC(=O)SCC(=O)c1ccc(NS(=O)(=O)c2ccc(OC(F)(F)F)cc2)cc1` [Example 08, Thiocarbonic acid O-methyl ester S-{2-oxo-2-[4-(4-trifluoromethoxy-benzenesulfonylamino)-phenyl]-ethyl}ester], for which the values for the IC50 in the test on HDAC and with HDAC in cells were less than 10000 nM and less than 1000 nM, respectively.

Consider `CC(=O)SCC(=O)c1ccc(S(=O)(=O)Nc2ccc(OC(F)(F)F)cc2)cc1` [Example 45, Thioacetic acid S-{2-oxo-2-[4-(4-trifluoromethoxy-phenylsulfamoyl)-phenyl]-ethyl}ester], for which the IC50 in the test with HDAC in cells was less than 10000 nM.

In the test with HDAC in cells, `CC(=O)Oc1ccccc1C(=O)SCC(=O)c1ccc(NS(=O)(=O)c2ccc(OC(F)(F)F)cc2)cc1` [Example 06, Acetic acid 2-{2-oxo-2-[4-(4-trifluoromethoxy-benzenesulfonylamino)-phenyl]-ethylsulfanylcarbonyl}-phenyl ester] returned an IC50 of less than 1000 nM.

`O=C(CSC(=O)c1cccnc1)c1ccc(NS(=O)(=O)c2ccc(OC(F)(F)F)cc2)cc1` [Example 02, Thionicotinic acid S-{2-oxo-2-[4-(4-trifluorometlioxy-benzenesulfonylamino)-phenyl]-ethyl}ester] had an IC50 in the test on HDAC in cells of less than 10000 nM.

`CC(=O)SCC(=O)c1sc(NS(=O)(=O)c2ccc(Cl)c(Cl)c2)nc1C` [Example 43, Thioacetic acid-S-{2-[2-(3,4-Dichlorobenzenesulfonylamino)-4-methyl-thiazol-5-yl]-2-oxo-ethyl}-ester] came in with an IC50 with HDAC of less than 50000 nM.

Take `CC(=O)SCC(=O)c1ccc(N(C)S(=O)(=O)c2ccc(OC(F)(F)F)cc2)cc1` [Example 12, Thioacetic acid S-(2-{4-[methyl-(4-trifluoromethoxy-benzenesulfonyl)-amino]phenyl}-2-oxo-ethyl)ester]: the IC50 in the test with HDAC in cells was less than 10000 nM.
